Measurements published in PMC2782309 (2009).
pEC50: −log10 of the molar value.

Target: TRPM2 (transient receptor potential cation channel, subfamily melastatin, member 2) (Homo sapiens, UniProt O94759)
Experiment: whole-cell patch clamp with ADPR infused through the pipette
Assay type: cell-based

TRPM2 (transient receptor potential cation channel, subfamily melastatin, member 2), sequence (O94759 whole entry, the tested form may be a part): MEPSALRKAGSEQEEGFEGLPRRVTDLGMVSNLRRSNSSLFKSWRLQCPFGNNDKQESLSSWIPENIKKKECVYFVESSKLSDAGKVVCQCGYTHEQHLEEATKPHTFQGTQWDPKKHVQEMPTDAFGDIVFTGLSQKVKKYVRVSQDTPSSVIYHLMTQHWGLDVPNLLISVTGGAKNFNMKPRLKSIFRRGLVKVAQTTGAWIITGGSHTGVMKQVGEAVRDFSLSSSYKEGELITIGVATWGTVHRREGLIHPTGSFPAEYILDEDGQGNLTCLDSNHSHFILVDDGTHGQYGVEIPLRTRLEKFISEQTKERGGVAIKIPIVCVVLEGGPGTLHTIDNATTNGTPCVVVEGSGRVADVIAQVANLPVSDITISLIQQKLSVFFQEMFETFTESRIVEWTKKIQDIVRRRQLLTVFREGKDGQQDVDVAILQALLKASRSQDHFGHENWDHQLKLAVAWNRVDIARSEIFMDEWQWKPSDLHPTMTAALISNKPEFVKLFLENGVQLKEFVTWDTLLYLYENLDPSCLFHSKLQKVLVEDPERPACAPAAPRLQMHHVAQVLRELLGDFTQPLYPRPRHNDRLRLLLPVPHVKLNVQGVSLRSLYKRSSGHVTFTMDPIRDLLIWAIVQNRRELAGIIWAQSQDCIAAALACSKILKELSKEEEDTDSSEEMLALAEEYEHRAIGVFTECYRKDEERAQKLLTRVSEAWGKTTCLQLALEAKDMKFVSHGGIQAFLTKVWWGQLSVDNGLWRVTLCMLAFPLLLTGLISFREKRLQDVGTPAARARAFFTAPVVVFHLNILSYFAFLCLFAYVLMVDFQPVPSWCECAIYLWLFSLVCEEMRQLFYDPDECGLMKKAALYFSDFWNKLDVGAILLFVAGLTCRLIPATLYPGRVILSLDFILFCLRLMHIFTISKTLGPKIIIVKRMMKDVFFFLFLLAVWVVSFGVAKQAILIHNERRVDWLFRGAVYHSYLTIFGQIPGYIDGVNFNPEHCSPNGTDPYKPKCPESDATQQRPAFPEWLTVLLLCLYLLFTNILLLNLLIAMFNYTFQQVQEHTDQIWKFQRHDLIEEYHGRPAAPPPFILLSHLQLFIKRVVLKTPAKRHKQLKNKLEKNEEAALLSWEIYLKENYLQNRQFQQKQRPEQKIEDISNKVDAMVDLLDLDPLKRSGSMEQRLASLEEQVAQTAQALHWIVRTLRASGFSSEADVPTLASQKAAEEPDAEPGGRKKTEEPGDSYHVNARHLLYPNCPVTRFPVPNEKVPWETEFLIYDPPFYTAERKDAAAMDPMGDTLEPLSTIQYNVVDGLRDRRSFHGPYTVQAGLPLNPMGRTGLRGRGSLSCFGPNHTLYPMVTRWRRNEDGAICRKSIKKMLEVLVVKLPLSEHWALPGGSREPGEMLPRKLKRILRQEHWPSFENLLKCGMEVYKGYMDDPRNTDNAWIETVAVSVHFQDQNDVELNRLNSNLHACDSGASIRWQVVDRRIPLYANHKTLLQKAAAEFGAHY

## Nc1ncnc2c1ncn2[C@@H]1O[C@H](COP(=O)(O)OP(=O)(O)OC[C@H]2OC(O)[C@H](O)[C@@H]2O)[C@@H](O)[C@H]1O (stereo partly shown) [ADPR]
  pEC50: 3.88
